Here are results for five compounds from patent US8940863B2, “Selective anticancer chimeric peptides which bind neuropilin receptor” (Stella Pharma Corporation, priority 2008, dated 2015).

The subject of assay [1] is SU.86.86.
For assay [2], the system named is BT-20.
Assay [3] relates to HEK293. Particulars: HEK293 normal cells; 72 hours; mean (Table 2).
In assay [4] the test system is U251.
Assay [5] has as its system H322.
The test system of assay [6] is BxPC-3.
The subject of assay [7] is LNCaP.
For assay [8], the system named is human breast cancer cell line MDA-MB-231. Description: Antitumor effect in MDA-MB-231 bearing mouse models. Particulars: 1 mg/kg intravenously injected; from day 5. It is filed as in vivo, athymic nude mice.
In assay [9] the test system is MRC-5. Briefly: Cell viability assay (WST-8). Particulars: MRC-5 normal cells; 72 hours; mean (Table 2).
The test system of assay [10] is BT-20. Description: Annexin V assay and caspase assay. It is filed as cell-based, human. Particulars: 5 μM, two hours. As for the experimental part:
BT-20 cells were treated for 2 hours at 37° C. with or without EB-lytic chimeric peptide at 5 μM. For determination of caspase activation or Annexin V-positive expression, peptide-treated cultures were simultaneously analyzed for caspase activity and propidium iodide (PI) staining using a carboxyfluorescein FLICA caspase-3&7 assay (Immunochemistry Technologies, Bloomington, Minn.), or, alternatively, for Annexin V labeling and PI staining by multiparametric flow cytometry. Furthermore, in accordance with the manufacturer's instructions, using a confocal laser scanning microscope, terminal deoxynucleotidyl transferase-dUTP nick end labeling (TUNEL) assay was conducted by MEBSTAIN Apoptosis Kit Direct (MBL).
In accordance with the method of Example 1, Annexin V assay and caspase assay were performed. […] For determination of caspase activation or Annexin V-positive expression, peptide-treated cultures were simultaneously analyzed for caspase activity and propidium iodide (PI) staining using a carboxyfluorescein FLICA caspase-3&7 assay (Immunochemistry Technologies, Bloomington, Minn.), or, alternatively, for Annexin V labeling and PI staining by multiparametric flow cytometry. The results are shown in FIG. 20A (Annexin V) and FIG. 20B (caspase activity)

The subject of assay [11] is H322 lung cancer cells. Description: Membrane permeabilization (calcein, confocal). In kind it is cell-based, human. As to conditions: 10 μM; for percentage of influx of medium to the cells over time (words): compared with EB-Lytic peptide.
Method: Calcein, a soluble fluorescence molecule, was added to H322 lung cancer cells in a glass-bottomed dish at a final concentration of 2 μM. […] At 0 minute, two minutes, five minutes, 10 minutes and 20 minutes after addition of peptide, using Olympus FV1000 confocal laser scanning microscope (Olympus), confocal images were taken.
Assay [12] relates to T47D. Description: Cell viability assay (WST-8). In kind it is cell-based, human. As to conditions: 48 h. An excerpt: (§1) Correlation between IC50 values was observed.
Assay [13] relates to Panc-1. Particulars: 48 h.
Assay [14] concerns SK-BR-3. Particulars: 48 h.
The subject of assay [15] is PE cell (pancreatic epidermal). Description: Cell viability assay (WST-8). It is filed as cell-based. Particulars: 48 h.
Text: as §1

Assay [16] deals with HEK293T. In kind it is cell-based. As to conditions: 48 h.
The test system of assay [17] is CFPAC-1. Particulars: 48 h.
The subject of assay [18] is HuCCT-1. Particulars: 48 h.
Assay [19] has as its system MDA-MB-231. As to conditions: 48 h.
Assay [20] has as its target EGFR (Homo sapiens, UniProt P00533). Particulars: Li Z et al., FASEB J 2005; read-out: dissociation constant to EGFR; cited from earlier work.
Assay [21] has as its target T1, human recombinant IL4R protein (Homo sapiens, UniProt P24394).
T1 sequence (P24394 26-825): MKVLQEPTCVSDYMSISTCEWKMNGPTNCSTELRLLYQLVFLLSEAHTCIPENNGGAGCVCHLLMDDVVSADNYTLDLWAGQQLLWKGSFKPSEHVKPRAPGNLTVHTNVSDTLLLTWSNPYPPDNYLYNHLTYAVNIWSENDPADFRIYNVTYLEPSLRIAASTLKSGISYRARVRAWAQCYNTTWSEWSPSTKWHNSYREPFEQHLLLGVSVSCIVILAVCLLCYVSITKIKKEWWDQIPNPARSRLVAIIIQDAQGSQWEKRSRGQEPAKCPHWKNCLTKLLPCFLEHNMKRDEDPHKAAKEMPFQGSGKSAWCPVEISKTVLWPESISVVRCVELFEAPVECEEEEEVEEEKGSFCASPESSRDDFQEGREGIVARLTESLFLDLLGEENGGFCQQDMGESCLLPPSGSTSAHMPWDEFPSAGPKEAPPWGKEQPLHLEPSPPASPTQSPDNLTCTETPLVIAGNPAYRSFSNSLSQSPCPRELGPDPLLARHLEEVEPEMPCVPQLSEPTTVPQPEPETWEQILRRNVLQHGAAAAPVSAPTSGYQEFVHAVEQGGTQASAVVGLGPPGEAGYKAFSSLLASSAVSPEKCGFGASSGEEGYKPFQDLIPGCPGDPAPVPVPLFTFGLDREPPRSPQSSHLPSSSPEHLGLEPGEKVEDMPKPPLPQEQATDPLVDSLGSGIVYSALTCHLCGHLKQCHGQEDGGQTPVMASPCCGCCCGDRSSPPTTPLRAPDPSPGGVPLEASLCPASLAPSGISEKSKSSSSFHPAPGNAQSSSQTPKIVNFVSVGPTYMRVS
Briefly: BIACORE binding to IL4R.

Where [22] appears, read: listed as EB (H2R)-Lytic peptide.

Entries after “also recorded” stand apart in the source; their conditions may differ. Read-outs that look alike come from different tables or passages of the source. Non-standard residues stand in square brackets, D forms with d. Residues, ends and D or L forms follow the SMILES beside them.

Regarding `CC[C@H](C)[C@H](NC(=O)[C@@H](NC(=O)[C@H](CC(N)=O)NC(=O)[C@H](CCC(N)=O)NC(=O)[C@@H]1CCCN1C(=O)[C@@H](NC(=O)[C@H](Cc1ccc(O)cc1)NC(=O)CNC(=O)[C@H](Cc1ccc(O)cc1)NC(=O)[C@H](Cc1c[nH]c2ccccc12)NC(=O)[C@H](CCCNC(=N)N)NC(=O)[C@@H](N)Cc1ccc(O)cc1)[C@@H](C)O)C(C)C)C(=O)NCC(=O)NCC(=O)NCC(=O)N[C@@H](CCCCN)C(=O)N[C@@H](CC(C)C)C(=O)N[C@H](CC(C)C)C(=O)N[C@@H](CC(C)C)C(=O)N[C@@H](CCCCN)C(=O)N[C@H](CC(C)C)C(=O)N[C@@H](CC(C)C)C(=O)N[C@H](CCCCN)C(=O)N[C@H](CCCCN)C(=O)N[C@@H](CC(C)C)C(=O)N[C@@H](CC(C)C)C(=O)N[C@@H](CCCCN)C(=O)N[C@H](CC(C)C)C(=O)N[C@@H](CC(C)C)C(=O)N[C@@H](CCCCN)C(=O)N[C@@H](CCCCN)C(=O)N[C@@H](CCCCN)C(=O)O` [EB(H2R)-lytic peptide] (H-YRWYGYTPQNVIGGGKL[dL]LK[dL]L[dK][dK]LLK[dL]LKKK-OH; N-terminus and C-terminus assumed), the “IC50 Ratio EB-lytic peptide/EB(H2R)-lytic peptide” value is 1.6 in assay [1] (SU.86.86); 3.4 in [2] (BT-20); 1.4 in assay [4] (U251); 2.1 in [5] (H322); 1.8 in [6] (BxPC-3); 2.1 in [7] (LNCaP). Besides, the half-inhibitory concentration (IC50) in assay [1] (SU.86.86 cancer cells, 72 hours, mean (Table 2)) is 7.4 µM; in assay [2] (BT-20 cancer cells, 72 hours, mean (Table 2)), 1.9 µM; in assay [3] it was more than 20 µM; in [4] (U251 cancer cells, 72 hours, mean (Table 2)), 8.4 µM; in assay [5] (H322 cancer cells, 72 hours, mean (Table 2)), 3.2 µM; in assay [6] (BxPC-3 cancer cells, 72 hours, mean (Table 2)), 6.6 µM. For the same compound, the IC50 was 4.8 µM in assay [7] (LNCaP cancer cells, 72 hours, mean (Table 2)) and more than 20 µM in [9]. Moreover, the “cell-killing effect compared with wild-type EGFR-binding chimeric peptide” value in assay [5] (H322, 72 hours) is “enhanced more”. The “antitumor effect” value in assay [8] was “in vivo antitumor effect higher; also recorded: higher antitumor effect in vivo; also recorded: sufficient antitumor effect”. Also, the “Annexin V-positive expression (words)” value was “induces Annexin V-positive expression more strongly” in assay [10] (setting [22]) and “induced Annexin V-positive expression more strongly” in assay [10] (listed as EB(H2R)-lytic). In addition, the “caspase 3,7 activation (words)” value in [10] (setting [22]) is recorded as “induces caspase 3 & 7 activity more strongly”; in [10] (listed as EB(H2R)-lytic), “induced caspase 3,7 activation more strongly”. Also, in assay [11] (0 to 20 minutes), the “number of cells with the membrane disintegrated (green) over time” value is listed as “increases in shorter time”. In addition, the figures for the “percentage of influx of medium to the cells over time (words)” value in assay [11] (setting [22]) and in assay [11] (listed as EB(H2R)-Lytic peptide) were “more rapid” and “more efficient”, respectively.

Regarding `CC(C)C[C@H](NC(=O)[C@H](CCCCN)NC(=O)[C@@H](CC(C)C)NC(=O)[C@H](CC(C)C)NC(=O)[C@H](CCCCN)NC(=O)[C@H](CCCCN)NC(=O)[C@H](CC(C)C)NC(=O)[C@@H](CC(C)C)NC(=O)[C@@H](CCCCN)NC(=O)[C@H](CCCCN)NC(=O)[C@H](CC(C)C)NC(=O)[C@H](CC(C)C)NC(=O)[C@@H](CCCCN)NC(=O)[C@H](CC(C)C)NC(=O)[C@H](CC(C)C)NC(=O)CNC(=O)CNC(=O)[C@H](CCCNC(=N)N)NC(=O)[C@@H]1CCCN1C(=O)[C@H](Cc1ccc(O)cc1)NC(=O)[C@@H]1CCCN1C(=O)[C@@H](NC(=O)[C@H](CCCNC(=N)N)NC(=O)CNC(=O)[C@H](CCC(N)=O)NC(=O)[C@H](Cc1ccc(O)cc1)NC(=O)[C@@H]1CCCN1C(=O)[C@@H](NC(=O)[C@H](Cc1c[nH]c2ccccc12)NC(=O)[C@H](CCC(N)=O)NC(=O)[C@H](Cc1ccc(O)cc1)NC(=O)[C@@H](N)CC(N)=O)C(C)C)C(C)C)C(=O)O` [Sema3A(aa363-377)-nLytic] (H-NYQWVPYQGRVPYPRGGLL[dK]LLK[dK][dL]LKKL[dL]KL-OH; N-terminus and C-terminus assumed), the half-maximal inhibitory concentration (IC50) in assay [1] (48 h) was 7.9 µM; in assay [2] (48 h), 10.9 µM; in assay [12], 4.1 µM; in assay [13] it was 13.1 µM; in assay [14], 8 µM; in assay [15] it was more than 50 µM. The IC50 in assay [6] (48 h) is 12.5 µM; in assay [16], more than 20 µM; in assay [17], 10.6 µM; in assay [18] it was 13.6 µM; in [19], 11.5 µM.

Turning to `CC(C)C[C@H](NC(=O)[C@H](CCCCN)NC(=O)[C@@H](CC(C)C)NC(=O)[C@H](CC(C)C)NC(=O)[C@H](CCCCN)NC(=O)[C@H](CCCCN)NC(=O)[C@H](CC(C)C)NC(=O)[C@@H](CC(C)C)NC(=O)[C@@H](CCCCN)NC(=O)[C@H](CCCCN)NC(=O)[C@H](CC(C)C)NC(=O)[C@H](CC(C)C)NC(=O)[C@@H](CCCCN)NC(=O)[C@H](CC(C)C)NC(=O)[C@H](CC(C)C)NC(=O)CNC(=O)CNC(=O)[C@H](CCCNC(=N)N)NC(=O)[C@@H]1CCCN1C(=O)[C@H](Cc1ccc(O)cc1)NC(=O)[C@@H]1CCCN1C(=O)[C@@H](NC(=O)[C@H](CCCNC(=N)N)NC(=O)CN)C(C)C)C(=O)O` [Sema3A(aa371-377)-nLytic] (H-GRVPYPRGGLL[dK]LLK[dK][dL]LKKL[dL]KL-OH; N-terminus and C-terminus assumed), the IC50 in assay [1] (48 h) was 8 µM; in assay [2] (48 h), 11.4 µM; in [12] it was 3.7 µM; in assay [13] it was 14.1 µM; in [14] it was 14.5 µM; in assay [15], more than 50 µM. For the same compound, the IC50 was 14.7 µM in [6] (48 h); more than 20 µM in assay [16]; 9.2 µM in assay [17]; 7.9 µM in assay [18]; 8.1 µM in assay [19].

Consider YHWYGYTPQNVI [EB peptide], for which the Kd in assay [20] was 0.022 µM.

With “KQLIRFLKRLDRN (IL4R binding peptide) [IL4R-binding peptide]”, in [21], the “binding affinity (BIACORE, words)” value is recorded as “binding affinity with human recombinant IL4R protein was observed”.
